Measurements taken from patent US12359259B2, “Biomarkers for predicting prostate cancer progression” (ACADEMIA SINICA, priority 2018, dated 2025).

Key:
Assay type in all cases: cell-based
MYC and C1GALT1 = assay: Immunoblots of MYC and C1GALT1 levels under inhibitor treatment; settings: 22Rv1-M4 and galectin-4-expressing 22Rv1 and LNCaP cells; 24 h
Text: Data are expressed as mean±SEM. *P<0.05, **P<0.01, ***P<0.001 (unpaired t-test, two-tail).

[1] = tested on: HER2/3 phosphorylation, AR, and PSA expression; assay: Immunoblots of HER2/3 phosphorylation, AR and PSA expression after galectin-4 induction
[2] = tested on: LNCaP-tetO-Gal4 and 22Rv1-tetO-Gal4 cells; assay: Lectin binding assay (flow cytometry) of cell surface glycans after glycosylation inhibitor treatment
Method: FIG. 8A to FIG. 8C show the characterization of glycophenotype in prostate cancer cells. FIG. 8A and FIG. 8B show lectin binding assay of LNCaP-tetO-Gal4 (A) and 22Rv1-tetO-Gal4 (B) cells treated with 3 μM Swainsonine or 4 mM Benzyl-α-GalNAc for 2 day following galectin-4 induction by doxycycline. […] Below, the mean fluorescence intensity (MFI) values from triplicates. Data are expressed as mean±SEM. *P<0.05, **P<0.01, ***P<0.001 (unpaired t-test, two-tail).
To profile cell surface glycans, cells were detached by Accutase (Innovative Cell Technologies, San Diego, CA) treatment, washed with PBS for three times, and suspended in Carbo-Free Blocking Solution (VECTOR, Burlingame, CA). Cells were incubated with biotin-conjugated lectins, PHA-L (2 μg/mL), PNA (10 μg/mL), MALII (5 μg/mL), Jacalin (5 μg/mL, VECTOR), and galectin-4 (5 μg/mL), or BSA as a control followed by APC-labeled streptavidin. After incubation for 30 min on ice, cells were analyzed on an Accuri C6 flow cytometer (BD Biosciences, Taiwan). Galectin-4 (R&D Systems, Minneapolis, MN) and BSA were biotinylated using Lightning-Link Rapid Conjugation System (Innova Biosciences, Cambridge, UK) following the manufacturer's instructions.

SOX9 expression = assay: Immunoblots of SOX9 expression in 22Rv1-M4 cells; settings: 3 μM Swainsonine or 4 mM Benzyl-α-GalNAc for 2 days
LNCaP-CR4 cells = assay: Colony-formation assay under enzalutamide treatment; settings: LNCaP-CR4 vs LNCaP; 10 days
[3] = 4 mM Benzyl-α-GalNAc for 2 day, PCa cells

SMILES: N#CC(=C(N)Sc1ccc(N)cc1)c1ccccc1C(F)(F)F [MEK1/2 inhibitor]
- induction of MYC and C1GALT1 compared to vehicle treatment (MYC and C1GALT1): blocked

SMILES: CC(=O)N[C@H]1[C@@H](OCc2ccccc2)O[C@H](CO)[C@H](O)[C@@H]1O [benzyl-α-GalNAc]
- galectin-4-mediated activation of HER2/3 and AR signaling ([1]; 4 mM Benzyl-α-GalNAc for 2 day, galectin-4 expressing LNCaP and 22Rv1 cells): blocked
- galectin-4 activity ([1]; PCa cells): suppressed
- binding of treated cells to MALII [2, 3]: reduced
- binding of treated cells to PNA [2, 3]: increased
- biosynthesis of α2,3-sialyl-T antigen ([2]; PCa cells): significantly impaired
- SOX9 expression (SOX9 expression): significantly inhibited

SMILES: CNC(=O)c1ccc(N2C(=S)N(c3ccc(C#N)c(C(F)(F)F)c3)C(=O)C2(C)C)cc1F [enzalutamide]
- clonogenic growth of LNCaP-CR4 cells under enzalutamide (LNCaP-CR4 cells): resistance

SMILES: O[C@H]1[C@H]2[C@H](O)CCCN2C[C@H]1O [swainsonine]
- HER2/3 phosphorylation and induction of AR and PSA protein expression ([1]; 3 μM Swainsonine for 2 day, galectin-4 expressing LNCaP and 22Rv1 cells): did not affect
- PHA-L staining for N-glycans ([2]; 3 μM Swainsonine for 2 day following doxycycline-mediated galectin-4 induction, LNCaP and 22Rv1 cells): decreased
- SOX9 expression (SOX9 expression): did not affect
